Laboratory results: patent publication US20250144125A1 (priority 2021, published 2025)
Read-outs that look alike come from different tables or passages of the source. Marks after values point to notes of the source that are not given here.

Legend:
[1] = tested on: measles virus (CC strain); experiment: microbe, parasite or virus in culture; assay type: cell-based
[2] = in vitro; conditions: African green monkey
[3] = tested on: human norovirus genogroup I NoV (Norwalk virus replicon) in HG23 cells; experiment: Human norovirus antiviral assay, qRT PCR in HG23 NoV replicon cells; assay type: cell-based; conditions: for EC50: Norwalk virus, HG23 Nov replicon cells, qRT PCR intracellular RNA, read-out: EC50 human norovirus
[4] = Cytotoxicity in the human norovirus replicon assay (HG23 cells); conditions: human, HG23 Nov replicon cells
[5] = tested on: MERS-CoV (EMC strain); experiment: microbe, parasite or virus in culture; assay type: cell-based
[6] = tested on: tacaribe virus (TRVL11573 strain); experiment: microbe, parasite or virus in culture; assay type: cell-based; conditions: for EC50: read-out: Tacaribe virus EC50 TRVL 11573 strain
[7] = tested on: yellow fever virus (YFV 17D strain); experiment: microbe, parasite or virus in culture; assay type: cell-based
[8] = tested on: chikungunya virus (S27 strain); experiment: microbe, parasite or virus in culture; assay type: cell-based
[9] = tested on: dengue virus 2 (New Guinea C strain); experiment: microbe, parasite or virus in culture; assay type: cell-based
[10] = tested on: enterovirus-71 (Tainan/4643/98 strain); experiment: organism not typed; assay type: cell-based
[11] = tested on: Vero cells; conditions: African green monkey
[12] = tested on: Huh7 cells
[13] = in vitro; conditions: African green monkey; remark: listed apart in the source
[14] = in vitro; conditions: human
[15] = tested on: influenza A (H1N1) virus (California/07/2009 strain); experiment: microbe, parasite or virus in culture; assay type: cell-based
[16] = tested on: Vero 76 cells; conditions: read-out: MERS-CoV CC50 Vero 76; Neutral Red; MERS-CoV screen
[17] = in vitro; conditions: dog
[18] = Measles morbillivirus, Vero 76, read-out: Measles EC50 CC strain
[19] = Middle East respiratory syndrome-related coronavirus, Vero 76, read-out: MERS-CoV EC50 EMC strain
[20] = read-out: Measles EC50 CC strain
[21] = Mammarenavirus tacaribeense, Vero
[22] = Yellow fever virus, Huh-7, read-out: Yellow fever virus EC50 YFV 17D strain
[23] = read-out: Yellow fever virus EC50 YFV 17D strain
[24] = Chikungunya virus, Vero 76, read-out: EC50 chikungunya virus
[25] = Dengue virus, Huh-7, read-out: EC50 dengue virus 2
[26] = Vero 76, read-out: EC50 enterovirus-71
[27] = read-out: Yellow fever virus CC50 Huh7, Neutral Red, YFV screen
[28] = Influenza A virus, H1N1, MDCK, read-out: EC50 California/07/2009 strain
[29] = read-out: MERS-CoV EC50 EMC strain
[30] = read-out: Yellow fever virus CC50 Huh7, Visual, YFV screen

Row | SMILES | EC50 [1, 18] | EC50 [3] [µM] | CC50 at 3 days [4] [µM] | EC50 [5, 19] [µM] | EC50 [1, 20] [µM] | EC50 [6, 21] | EC50 [7, 22] [µM] | EC50 [8, 24] [µM] | EC50 [9, 25] [µM] | EC50 ([9]; read-out: EC50 dengue virus 2) [µM] | EC50 [10, 26] [µM] | CC50 ([12]; human) [µM] | CC50 [12, 27] [µM] | CC50 ([2]; MERS-CoV CC50 Vero 76) [µM] | CC50 ([14]; CC50) [µM] | CC50 ([14]; Yellow fever virus CC50 Huh7) [µM] | EC50 [15, 28] | CC50 [16] [µM] | CC50 ([17]; CC50 MDCK) | EC50 [5, 29] [µM] | further results
1 | Nc1ccn([C@@H]2O[C@H](CO)[C@@H](O)[C@H]2F)c(=O)n1 [2′-Fluoro-2′-deoxycytidine, 2′-fluoro-2′-deoxycytidine, reference compound] | 1 µg/mL | – | – | – | – | – | – | – | – | – | – | – | – | – | – | – | – | – | – | – | Measles EC50 CC strain [1]: 0.95^d μg/mL; CC50 ([2]; Measles CC50 Vero 76): > 100 µg/mL
2 | C[C@@]1(O)[C@H](O)[C@@H](CO)O[C@H]1n1ccc(N)nc1=O [2′C Methyl Cytidine, 2′-C-Methylcytidine, reference compound] | – | 1.57 | > 25 | – | – | – | – | – | – | – | – | – | – | – | – | – | – | – | – | – | –
3 | OC[C@H]1O[C@@H](n2ccc3c(C#Cc4cccc(F)c4)ncnc32)[C@H](O)[C@@H]1O [3.1i, 6-((3-Fluorophenyl)ethynyl)-9-β-D-ribofuranosyl-7-deazapurine] | 3.2 µM | – | – | > 32 | 3.6 | > 12 µM | 1.2 | > 32 | 2.6 | 2.7 | > 32 | 22 | 30 | 32 | 24 | 32 | – | – | – | – | EC50 [6]: > 11 µM; EC50 [7, 23]: 0.85 µM; EC50 ([8]; read-out: EC50 chikungunya virus): > 30 µM; EC50 ([10]; read-out: EC50 enterovirus-71): > 28 µM; CC50 [11]: 11 µM; CC50 ([2]; Measles CC50 Vero 76): 24 µM; CC50 ([13]; Tacaribe virus CC50 Vero): 12 µM
4 | C#Cc1cn([C@@H]2O[C@H](CO)[C@@H](O)[C@H]2O)c2ncnc(CC)c12 [3.1l, 6-Ethyl-7-ethynyl-9-β-D-ribofuranosyl-7-deazapurine] | 72 µM | 0.393 | 0.455 | – | > 100 | > 100 µM | > 100 | > 100 | > 100 | > 51 | > 100 | 51 | 92 | > 100 | – | > 100 | 0.34 µM | > 100 | > 100 µM | – | EC50 [7, 23]: > 92 µM; EC50 ([15]; read-out: EC50 California/07/2009 strain): 0.52 µM; activity against human norovirus in words [3]: no promising activity
5 | C=Cc1cn([C@@H]2O[C@H](CO)[C@@H](O)[C@H]2O)c2ncnc(CC)c12 [3.1m, 6-Ethyl-7-vinyl-9-β-D-ribofuranosyl-7-deazapurine] | 25 µM | 3.35 | 14.6 | 22 | 43 | > 100 µM | – | > 100 | 32 | > 19 | > 100 | – | 20 | > 100 | – | – | > 100 µM | > 100 | > 100 µM | 14 | activity against human norovirus in words [3]: no promising activity; CC50 [12, 30]: 4.6 µM
6 | CCc1ncnc2c1c(C#CC1CC1)cn2[C@@H]1O[C@H](CO)[C@@H](O)[C@H]1O [3.1n, 6-Ethyl-7-cyclopropylethynyl-9-β-D-ribofuranosyl-7-deazapurine] | 64 µM | 0.062 | 0.342 | 10 | 33 | > 100 µM | – | > 100 | 13 | > 8.3 | > 100 | – | 21 | 100 | – | – | > 100 µM | > 100 | > 100 µM | 5.7 | activity against MERS-CoV in words [5]: moderately active with low selectivity index; activity against human norovirus in words [3]: no promising activity; CC50 [12, 30]: 100 µM; CC50 ([2]; CC50): > 100 µM; CC50 ([2]; Measles CC50 Vero 76): > 100 µM; CC50 ([13]; Tacaribe virus CC50 Vero): > 100 µM
7 | CCc1ncnc2c1c(I)cn2[C@@H]1O[C@H](CO)[C@@H](O)[C@H]1O [3.1o, 6-Ethyl-7-iodo-9-β-D-ribofuranosyl-7-deazapurine] | 100 µM | – | – | > 100 | > 100 | > 100 µM | > 100 | > 100 | > 68 | > 64 | > 100 | 64 | 85 | > 100 | 68 | > 100 | > 100 µM | > 100 | > 100 µM | 68 | EC50 [7, 23]: > 85 µM
8 | CCc1ncnc2c1c(Cl)cn2[C@@H]1O[C@H](CO)[C@@H](O)[C@H]1O [3.1p, 6-Ethyl-7-chloro-9-β-D-ribofuranosyl-7-deazapurine] | 100 µM | – | – | 100 | > 100 | 100 µM | > 100 | > 100 | 32 | > 38 | > 100 | 38 | > 100 | > 100 | 68 | > 100 | > 100 µM | > 100 | > 100 µM | > 100 | EC50 [6]: > 100 µM
9 | CCc1ncnc2c1c(Br)cn2[C@@H]1O[C@H](CO)[C@@H](O)[C@H]1O [3.1q, 6-Ethyl-7-bromo-9-β-D-ribofuranosyl-7-deazapurine] | > 100 µM | – | – | > 100 | – | > 100 µM | > 100 | – | > 68 | > 47 | > 100 | 47 | > 100 | > 100 | 68 | > 100 | > 100 µM | > 100 | > 100 µM | – | –
10 | NC(=O)c1ncn([C@@H]2O[C@H](CO)[C@@H](O)[C@H]2O)n1 [Ribavirin, ribavirin, reference compound] | – | – | – | – | – | 9.2 µg/mL | – | – | – | – | – | – | – | – | – | – | 2.2 µg/mL | – | > 1000 µg/mL | – | Tacaribe virus EC50 TRVL 11573 strain [6]: 7.8^d μg/mL; EC50 California/07/2009 strain [15]: 2.4^d μg/mL; EC50 ([15]; Influenza A virus, H1N1, MDCK, read-out: EC50 Influenza A (H1N1)): 10.2 µM; CC50 [11]: > 3600 µM; Tacaribe virus CC50 Vero [11]: 970^d μg/mL; CC50 ([13]; CC50): > 2950 µM; CC50 ([13]; Tacaribe virus CC50 Vero): > 1000 µg/mL; CC50 ([17]; CC50): > 4100 µM
